These results are taken from patent US10774121B2, “Methods and compositions for treating neurodegenerative disorders and Alzheimer's Disease and improving normal memory” (The Regents of the University of California, priority 2006, dated 2020).

One assay deals with tyrosine kinase activity. The assay is described as follows: Tyrosine kinase ELISA on extracts of β-APP-transfected DAMI cells mixed with PS-1-transfected DAMI cells. The assay is classed as cell-based, human. The procedure:
All experiments after those in FIG. 7 (with the exception of FIG. 9a, Panel 4) were carried out with appropriately transfected DAMI cells only. Equal numbers (0.5×10^6/ml) of β-APP-transfected DAMI cells and either PS-1- or PS-2-transfected DAMI cells were mixed gently at room temperature, exactly as described (Dewji and Singer, 1998). In control experiments, DAMI cells transfected with pcDNA3 alone were substituted for the β-APP transfected cells.
At several times between 0 and 20 min after mixing, an aliquot of each cell mixture was rapidly centrifuged, the culture medium was removed, and the cell pellet was suspended in 200 μl of extraction buffer (50 mM Tris, pH 8.0/150 mM NaCl/0.5% Nonidet-P40) containing protease inhibitors (1 mM 4-(2-aminoethyl) benzene sulfonyl fluoride hydrochloride (AEBSF)/1 μg/ml antipain/0.1 μg/ml pepstatin A/0.1 μg/ml leupeptin) and the phosphatase inhibitor sodium orthovanadate (0.1 mM). The mixture was sonicated with three bursts of 20 sec duration and then centrifuged. These extract supernatants were then used for Western blot and ELISA analyses as described below.
ELISAs Protein tyrosine kinase activity was measured by an Enzyme Linked Immunosorbent Assay (ELISA) using a tyrosine kinase assay kit (Upstate Biotechnology). […]
On the technique in general: An ELISA detects its analyte on a solid surface through an enzyme-linked reagent.

A further assay concerns Aβ production. The assay is described as follows: ELISA of Aβ produced in β-APP-only:PS-1-only co-culture extracts. The format is cell-based, mouse. Conditions: β-APP:PS-1 co-culture, Peptide 1-80 0-3 μM. The procedure: Co-cultures of β-APP-only and PS-1-only cells were carried out in the presence and absence of Peptide 1-80 (0-3 μM). ^35S-GTPγS assays were carried out on extracts as a measure of G-protein activation. The Aβ produced in these co-culture extracts was determined by ELISA.
ES-derived mouse cells (PS-1^−/−; PS-2^−/−) that expressed only small amounts of endogenous β-APP but no PS, were transiently transfected with cDNA for human β-APP to produce cells expressing excess human β-APP over mouse β-APP, and no PS-1 or PS-2 (β-APP-only cells). Embryonic (E18) mouse primary fibroblasts derived from β-APP-null mice, expressing only small amounts of endogenous PS-1 and PS-2, were transfected with cDNAs for human PS-1 to produce cells expressing excess human over mouse PS-1 but no β-APP (PS-1-only cells). The minigenes were co-transfected with PS-1 in the PS-only APP−/− fibroblasts to inhibit the endogenous mouse Gα under investigation in those cells. PS−/− ES cells were separately transfected with human β-APP cDNA (β-APP only cells) and the two types of cells were co-cultured for 24 hours. Cells were harvested and detergent-buffer extracts of the co-cultures were prepared. Determination of [^35S]GTPγS incorporation in these cultures was carried out in the presence and absence of each minigene: Aliquots each containing 100 μg total protein were reacted with ^35S-GTPγS and immunoprecipitation of each ^35S-GTPγS-treated extract was carried out with antibodies directed to the particular Gα under investigation. Specificity of binding of a particular Gα to PS-1 was established by blocking of GTPγS incorporation in the presence of the specific minigene inhibitor.
Co-culture of β-APP-only with PS-1-only cells was carried out as described above.
ELISA for the production of Aβ1-40 was carried out using sandwich ELISA kits (Biosource).

The target in the next assay is Gαo (Mus musculus, UniProt P18872). The assay is described as follows: 35S-GTPγS incorporation (G-protein activation) in β-APP-only:PS-1-only co-cultures, immunoprecipitation with Gαo antibody K-20. The assay is classed as cell-based. Conditions: β-APP:PS-1 co-culture, Peptide 1-80 0-3 μM. The text has this: Two cell types were generated: ES-derived mouse cells (PS-1^−/−; PS-2^−/−) that expressed only small amounts of endogenous β-APP but no PS, were transiently transfected with cDNA for human β-APP to produce cells expressing excess human β-APP over mouse β-APP, and no PS-1 or PS-2 (β-APP-only cells). Embryonic (E18) mouse primary fibroblasts derived from β-APP-null mice, expressing only small amounts of endogenous PS-1 and PS-2, were transfected with cDNAs for human PS-1 to produce cells expressing excess human over mouse PS-1 but no β-APP (PS-1-only cells). […]
Sequence of Gαo (P18872 whole entry): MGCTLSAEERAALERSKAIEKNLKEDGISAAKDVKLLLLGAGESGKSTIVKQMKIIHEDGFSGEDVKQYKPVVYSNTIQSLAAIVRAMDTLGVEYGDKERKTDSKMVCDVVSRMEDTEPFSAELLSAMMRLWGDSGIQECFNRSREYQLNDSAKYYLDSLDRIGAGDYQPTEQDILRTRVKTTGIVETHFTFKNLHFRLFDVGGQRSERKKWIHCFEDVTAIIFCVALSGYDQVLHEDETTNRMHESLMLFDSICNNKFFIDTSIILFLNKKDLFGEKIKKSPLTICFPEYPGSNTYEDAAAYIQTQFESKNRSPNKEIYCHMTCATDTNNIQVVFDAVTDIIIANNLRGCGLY
Co-cultures of β-APP-only and PS-1-only cells were carried out in the presence and absence of Peptide 1-80 (0-3 μM). ^35S-GTPγS assays were carried out on extracts as a measure of G-protein activation. The Aβ produced in these co-culture extracts was determined by ELISA. […]
^35S-GTPγS Assays: Extract (100 μg of total protein) was mixed with an equal volume of GTPγS Buffer B (50 mM HEPES/NaOH pH 7.4, 40 μM GDP, 50 mM MgCl2, 100 mM NaCl) and reacted with 50 nM ^35S-GTPγS (1250 Ci/mmol, Perkin Elmer, Waltham, Mass.) for 60 min at RT. […] The agarose beads were suspended in scintillation fluid (CytoScint, ICN) (5 ml) and counted in a Beckman Coulter LS 6000 SC scintillation counter for 3 min.
In general terms: GTPγS resists hydrolysis and so accumulates on activated G proteins.

In the case of `CC(C)(C)n1nc(-c2ccc(Cl)cc2)c2c(N)ncnc21` [PP2], the “tyrosine kinase activity after mixing” value in the assay on tyrosine kinase activity (10 nM PP2) is given as “inhibition”.
Take `CO[C@H]1[C@@H](OC)C[C@H](C)[C@@H](OC)C2=CC(=O)C=C(NC(=O)/C(C)=C/C=C\[C@H](OC)[C@@H](OC(N)=O)/C(C)=C/[C@@H]1C)C2=O` [herbimycin A]: in the assay on tyrosine kinase activity (10 μg/ml herbimycin A), the “increase in tyrosine kinase activity at 8-10 mins after mixing” value is recorded as “completely inhibited”.
As for “Peptide 1-80: fusion construct of the water-soluble entire 80 amino acid NH2-terminal domain of PS-1”, in the assay on Aβ production, the “Aβ production by ELISA” value is reported as “inhibited by Peptide 1-80 in a dose-dependent manner”. Also, the “G-protein (Gαo) activation, 35S-GTPγS assay” value with Gαo is recorded as “inhibited by Peptide 1-80 in a dose-dependent manner”.
